This is an account of results in patent publication US20240368135A1 (VERTEX PHARMACEUTICALS INCORPORATED, priority 2021, published 2024).

Some results are limits rather than exact numbers.

The term IC50 denotes the midpoint of a concentration-inhibition curve.

Sequence of human NaV 1.8 (Q9Y5Y9 126-399 limits assumed): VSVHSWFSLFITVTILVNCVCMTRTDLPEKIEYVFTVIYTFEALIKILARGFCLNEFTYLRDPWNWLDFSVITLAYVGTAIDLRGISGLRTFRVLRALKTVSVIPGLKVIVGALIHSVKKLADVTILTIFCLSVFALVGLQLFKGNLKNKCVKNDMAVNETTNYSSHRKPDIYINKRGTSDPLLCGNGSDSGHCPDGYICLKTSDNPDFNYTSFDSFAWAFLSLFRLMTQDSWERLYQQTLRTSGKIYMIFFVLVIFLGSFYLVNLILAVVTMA
Sequence of human NaV 1.8 (Q9Y5Y9 660-890 limits assumed): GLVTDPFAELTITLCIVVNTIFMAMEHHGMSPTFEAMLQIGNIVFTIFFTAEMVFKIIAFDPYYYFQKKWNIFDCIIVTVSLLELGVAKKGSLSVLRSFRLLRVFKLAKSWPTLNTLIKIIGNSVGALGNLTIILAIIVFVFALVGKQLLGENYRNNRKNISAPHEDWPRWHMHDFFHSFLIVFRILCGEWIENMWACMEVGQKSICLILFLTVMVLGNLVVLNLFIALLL
Sequence of human NaV 1.8 (Q9Y5Y9 1148-1722 limits assumed): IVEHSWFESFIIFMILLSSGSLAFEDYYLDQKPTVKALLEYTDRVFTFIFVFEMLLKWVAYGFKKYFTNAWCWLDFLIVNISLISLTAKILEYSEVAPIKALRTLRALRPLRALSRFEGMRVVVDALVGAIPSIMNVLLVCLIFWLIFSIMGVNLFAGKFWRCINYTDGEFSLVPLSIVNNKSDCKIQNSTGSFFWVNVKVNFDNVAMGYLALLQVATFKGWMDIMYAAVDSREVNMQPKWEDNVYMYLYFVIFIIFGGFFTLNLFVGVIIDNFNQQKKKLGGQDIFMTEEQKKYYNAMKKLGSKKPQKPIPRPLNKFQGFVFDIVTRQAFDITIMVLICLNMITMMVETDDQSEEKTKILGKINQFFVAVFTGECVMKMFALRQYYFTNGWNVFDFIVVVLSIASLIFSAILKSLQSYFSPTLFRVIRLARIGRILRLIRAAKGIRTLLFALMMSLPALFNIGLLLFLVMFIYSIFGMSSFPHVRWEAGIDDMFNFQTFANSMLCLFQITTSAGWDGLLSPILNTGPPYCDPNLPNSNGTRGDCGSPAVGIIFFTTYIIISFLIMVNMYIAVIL

One test addresses human NaV 1.8 (Homo sapiens, UniProt Q9Y5Y9). In words: E-VIPR assay detecting and measuring NaV inhibition properties. It counts as cell-based. The conditions noted are these: HEK cells expressing truncated human NaV 1.8; in the presence of human serum (compound numbers followed by *); read-out: IC50 in the E-VIPR Assay, performed in the presence of human serum. The method, boiled down: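 Membrane potential was followed by coumarin/oxonol FRET during electrical field stimulation of matrigel-seeded HEK cells carrying truncated human NaV1.8 plus KIR2.1. Dosing used 11 points, 3-fold steps, top 300 nM final, 0.625% DMSO, with or without 25% human serum.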
Regarding `COc1c([C@H]2C[C@@](C)(C(F)(F)F)O[C@@H]2C(=O)Nc2ccnc([C@@H](O)[C@H](C)O)c2)ccc(F)c1F` (stereo in doubt) [Compound 698, rel-(2S,3R,5S)-3-(3,4-difluoro-2-methoxyphenyl)-N-(2-((1R,2S)-1,2-dihydroxypropyl)pyridin-4-yl)-5-methyl-5-(trifluoromethyl)tetrahydrofuran-2-carboxamide], the IC50 is not below 1000 nM.

Consider `C[C@@H]1[C@H](c2ccc(F)c(F)c2OC(F)F)[C@@H](C(=O)Nc2ccc(C(N)=O)nc2)O[C@]1(C)C(F)(F)F` (single isomer, unassigned) [Compound 93], for which the IC50 was not below 1000 nM. Still for that read-out and setting: the result for `COc1c(C2C(C(=O)Nc3ccnc(C(O)C(C)O)c3)OC(C)(C(F)(F)F)C2C)ccc(F)c1C` (single isomer, unassigned) [Compound 146] reads not below 1000 nM.

The same test, now with this note: HEK cells expressing truncated human NaV 1.8; no human serum; read-out: IC50 in the E-VIPR Assay.
`CNC1(c2cc(NC(=O)[C@@H]3O[C@@](C)(C(F)(F)F)[C@@H](C)[C@H]3c3ccc(F)c(F)c3OC)ccn2)COC1` [Compound 361, (2R,3S,4S,5R)-3-(3,4-difluoro-2-methoxyphenyl)-4,5-dimethyl-N-(2-(3-(methylamino)oxetan-3-yl)pyridin-4-yl)-5-(trifluoromethyl)tetrahydrofuran-2-carboxamide]: the 50% inhibitory concentration (IC50) was less than 10 nM.

Regarding `CCOc1c(C2C(C(=O)Nc3ccnc(S(C)(=O)=NC)c3)OC(C)(C(F)(F)F)C2C)ccc(F)c1F` (stereo not drawn) [Compound 113, N-[2-(N,S-dimethylsulfonimidoyl)-4-pyridyl]-3-(2-ethoxy-3,4-difluoro-phenyl)-4,5-dimethyl-5-(trifluoromethyl)tetrahydrofuran-2-carboxamide], the IC50 was less than 10 nM. For the molecule `COc1c([C@H]2[C@H](C(=O)NC(C)C(N)=O)O[C@@](C)(C(F)(F)F)[C@H]2C)ccc(F)c1F` (stereo partly drawn) [Compound 271, (2R,3S,4S,5R)-N-(1-amino-1-oxopropan-2-yl)-3-(3,4-difluoro-2-methoxyphenyl)-4,5-dimethyl-5-(trifluoromethyl)tetrahydrofuran-2-carboxamide], the IC50 was not below 1000 nM.

For the molecule `COc1c([C@H]2[C@H](C(=O)Nc3ccc(-c4ccccn4)nc3)O[C@@](C)(C(F)(F)F)[C@H]2C)ccc(F)c1F` [Compound 396, (2R,3S,4S,5R)-N-([2,2′-bipyridin]-5-yl)-3-(3,4-difluoro-2-methoxyphenyl)-4,5-dimethyl-5-(trifluoromethyl)-tetrahydrofuran-2-carboxamide], the IC50 was not below 1000 nM.

Consider `COc1c([C@H]2[C@H](C(=O)Nc3ccnc(N4C[C@H]5C[C@H](N5)C4=O)c3)O[C@@](C)(C(F)(F)F)[C@H]2C)ccc(F)c1F` (single isomer, unassigned) [Compound 491, rel-(2R*,3S*,4S*,5R*)-3-(3,4-difluoro-2-methoxyphenyl)-4,5-dimethyl-N-(2-((1S,5R)-2-oxo-3,6-diazabicyclo[3.1.1]heptan-3-yl)pyridin-4-yl)-5-(trifluoromethyl)tetrahydrofuran-2-carboxamide], for which the IC50 lay within 10 to 100 nM.

For `COc1c([C@H]2[C@H](C(=O)Nc3cn(C)cn3)O[C@@](C)(C(F)(F)F)[C@H]2C)ccc(F)c1F` [Compound 318, (2R,3S,4S,5R)-3-(3,4-difluoro-2-methoxyphenyl)-4,5-dimethyl-N-(1-methyl-1H-imidazol-4-yl)-5-(trifluoromethyl)-tetrahydrofuran-2-carboxamide], the 50% inhibitory concentration (IC50) is not below 1000 nM. For the molecule `COc1c([C@H]2[C@H](C(=O)NCC(C)(C)C(N)=O)O[C@@](C)(C(F)(F)F)[C@H]2C)ccc(F)c1F` [Compound 282, (2R,3S,4S,5R)-N-(3-amino-2,2-dimethyl-3-oxopropyl)-3-(3,4-difluoro-2-methoxyphenyl)-4,5-dimethyl-5-(trifluoromethyl)tetrahydrofuran-2-carboxamide], the IC50 is not below 1000 nM.

On to `COCCOc1c([C@H]2[C@H](C(=O)Nc3ccc(=O)n(C)c3)O[C@@](C)(C(F)(F)F)[C@H]2C)ccc(F)c1F` [Compound 584, (2R,3S,4S,5R)-3-(3,4-difluoro-2-(2-methoxyethoxy)phenyl)-4,5-dimethyl-N-(1-methyl-6-oxo-1,6-dihydropyridin-3-yl)-5-(trifluoromethyl)tetrahydrofuran-2-carboxamide], for which the IC50 was less than 10 nM. The same measure, in the same setting: the result for `COc1c([C@H]2[C@H](C(=O)Nc3ccnc(CO)n3)O[C@@](C)(C(F)(F)F)[C@H]2C)ccc(F)c1F` [Compound 381, (2R,3S,4S,5R)-3-(3,4-difluoro-2-methoxyphenyl)-N-(2-(hydroxymethyl)pyrimidin-4-yl)-4,5-dimethyl-5-(trifluoromethyl)tetrahydrofuran-2-carboxamide] reads 10 to 100 nM; that for `Cc1nocc1NC(=O)[C@@H]1O[C@@](C)(C(F)(F)F)[C@@H](C)[C@H]1c1ccc(F)c(F)c1OCCN1C[C@H]2COC[C@H]2C1` [Compound 634, (2R,3S,4S,5R)-3-(3,4-difluoro-2-(2-((3aR,6aS)-tetrahydro-1H-furo[3,4-c]pyrrol-5(3H)-yl)ethoxy)phenyl)-4,5-dimethyl-N-(3-methylisoxazol-4-yl)-5-(trifluoromethyl)tetrahydrofuran-2-carboxamide], 10 to 100 nM. Still for that read-out and setting: under `CC1C(c2ccc(F)c(F)c2OCCO)C(C(=O)Nc2ncn(C3CC(F)C3)n2)OC1(C)C(F)(F)F` [Compound 554, (2R,3S,4S,5R)-3-(3,4-difluoro-2-(2-hydroxyethoxy)phenyl)-N-(1-((15,3S)-3-fluorocyclobutyl)-1H-1,2,4-triazol-3-yl)-4,5-dimethyl-5-(trifluoromethyl)tetrahydrofuran-2-carboxamide] stands not below 1000 nM. With `COc1c([C@H]2[C@H](C(=O)Nc3ccc(C(=O)O)nc3)O[C@@](C)(C(F)(F)F)[C@H]2C)ccc(F)c1F` [Compound 19, 5-[[(2R,3S,4S,5R)-3-(3,4-difluoro-2-methoxy-phenyl)-4,5-dimethyl-5-(trifluoromethyl)tetrahydrofuran-2-carbonyl]amino]pyridine-2-carboxylic acid], the IC50 was less than 10 nM. Regarding `COc1c([C@H]2[C@H](C(=O)Nc3cnc(CO)n3C)O[C@@](C)(C(F)(F)F)[C@H]2C)ccc(F)c1F` [Compound 21, (2R,3S,4S,5R)-3-(3,4-difluoro-2-methoxy-phenyl)-N-[2-(hydroxymethyl)-3-methyl-imidazol-4-yl]-4,5-dimethyl-5-(trifluoromethyl)tetrahydrofuran-2-carboxamide], the IC50 lay in the range of 10 to 100 nM. Still for that read-out and setting: under `COc1c([C@H]2[C@H](C(=O)NCCc3ncc[nH]3)O[C@@](C)(C(F)(F)F)[C@H]2C)ccc(F)c1F` [Compound 272, (2R,3S,4S,5R)-3-(3,4-difluoro-2-methoxy-phenyl)-N-[2-(1H-imidazol-2-yl)ethyl]-4,5-dimethyl-5-(trifluoromethyl)tetrahydrofuran-2-carboxamide] stands not below 1000 nM; under `COc1c([C@H]2[C@H](C(=O)Nc3ccc(-c4cnco4)nc3)O[C@@](C)(C(F)(F)F)[C@H]2C)ccc(F)c1F` [Compound 394, (2R,3S,4S,5R)-3-(3,4-difluoro-2-methoxyphenyl)-4,5-dimethyl-N-(6-(oxazol-5-yl)pyridin-3-yl)-5-(trifluoromethyl)-tetrahydrofuran-2-carboxamide], 100 to 1000 nM. With `C[C@H]1[C@@H](c2ccc(F)c(F)c2OCCO)[C@H](C(=O)Nc2ccn(C)c(=O)c2)O[C@@]1(C)C(F)(F)F` [Compound 541, (2R,3S,4S,5R)-3-(3,4-difluoro-2-(2-hydroxyethoxy)phenyl)-4,5-dimethyl-N-(1-methyl-2-oxo-1,2-dihydropyridin-4-yl)-5-(trifluoromethyl)tetrahydrofuran-2-carboxamide], the IC50 lay within 10 to 100 nM. Same read-out and setting: the result for `COc1cc(NC(=O)[C@@H]2O[C@@](C)(C(F)(F)F)[C@@H](C)[C@H]2c2ccc(F)c(F)c2OCCO)ccn1` [Compound 544, (2R,3S,4S,5R)-3-(3,4-difluoro-2-(2-hydroxyethoxy)phenyl)-N-(2-methoxypyridin-4-yl)-4,5-dimethyl-5-(trifluoromethyl)tetrahydrofuran-2-carboxamide] reads 10 to 100 nM. Still for that read-out and setting: under `C[C@@H]1[C@H](c2ccc(F)c(F)c2)[C@@H](C(=O)Nc2ccnc(S(C)(=O)=O)c2)O[C@]1(C)C(F)(F)F` (stereo in doubt) [Compound 154, rel-(2S,3R,4R,5S)-3-(3,4-difluorophenyl)-4,5-dimethyl-N-(2-(methylsulfonyl)pyridin-4-yl)-5-(trifluoromethyl)tetrahydrofuran-2-carboxamide] stands not below 1000 nM; under `COc1c([C@H]2[C@H](C(=O)Nc3cc(C(O)CCO)ncc3F)O[C@@](C)(C(F)(F)F)[C@H]2C)ccc(F)c1F` (single isomer, unassigned) [Compound 256, rel-(2R*,3S*,4S*,5R*)-3-(3,4-difluoro-2-methoxyphenyl)-N-(2-(1,3-dihydroxypropyl)-5-fluoropyridin-4-yl)-4,5-dimethyl-5-(trifluoromethyl)tetrahydrofuran-2-carboxamide], less than 10 nM; under `C[C@H]1[C@@H](c2ccc(F)c(F)c2OCCO)[C@H](C(=O)Nc2ncn(C3CCOC3)n2)O[C@@]1(C)C(F)(F)F` (stereo partly drawn) [Compound 561, (2R,3S,4S,5R)-3-(3,4-difluoro-2-(2-hydroxyethoxy)phenyl)-4,5-dimethyl-N-(1-(tetrahydrofuran-3-yl)-1H-1,2,4-triazol-3-yl)-5-(trifluoromethyl)tetrahydrofuran-2-carboxamide], not below 1000 nM. The same measure, in the same setting: the result for `COCC(NC(C)C)c1ccc(NC(=O)[C@@H]2O[C@@](C)(C(F)(F)F)[C@@H](C)[C@H]2c2ccc(F)c(F)c2OC)cn1` (single isomer, unassigned) [Compound 420, rel-(2R*,3S*,4S*,5R*)-3-(3,4-difluoro-2-methoxyphenyl)-N-(6-(1-(isopropylamino)-2-methoxyethyl)pyridin-3-yl)-4,5-dimethyl-5-(trifluoromethyl)-tetrahydrofuran-2-carboxamide] reads not below 1000 nM.
